In ChEMBL document CHEMBL1124907, “Synthesis and antiviral activity of some 3'-C-difluoromethyl and 3'-deoxy-3'-C-fluoromethyl nucleosides” (J Med Chem, 1990):
≈ marks a conversion by molar mass, not a printed value.

Experiments:
[1] = system: CV-1; assay: Inhibitory effect on Varicella zoster virus in CV-1 cells; format: functional, cell-based, Cercopithecidae; conditions: Chlorocebus aethiops
[2] = system: MT4; assay: Inhibitory effect on human immunodeficiency virus type-1 (HIV-1) in MT-4 cells; format: functional; conditions: read-out: ID50 (the source's name)

Row | Structure (SMILES) | IC50 [1] [µg/mL] | IC50 [2] [nM]
1 | O=c1[nH]c(=O)n(C2O[C@H](CO)[C@H](CF)[C@@H]2F)cc1I (some centres not stated) | 5.3 (≈ 13.7 µM) | –
2 | Cc1cn([C@H]2C[C@H](F)[C@@H](CO)O2)c(=O)[nH]c1=O [ALOVUDINE] | – | 50
